US6265426A, “Triazole derivatives” (Hoffmann-La Roche Inc., priority 1999, dated 2001)
Where a name gives a salt, the structure may show the parent alone.

Target: T1, NMDA receptor (Rattus norvegicus, UniProt P35439+Q00960)
T1 construct: Membranes were prepared by homogenization of the whole brain minus cerebellum and medulla oblongata; from tissue; host or cells: rat whole brain minus cerebellum and medulla oblongata, membranes
Experiment: [3H] Compound A (R-(R*,S*)]-α-(4-Hydroxy-phenyl)-β-methyl-4-(phenyl-methyl)-1-piperidine propanol) binding, displacement on rat brain membranes (NMDA receptor subtype)
Conditions: displacement of 5 nM [3H] Compound A, rat whole brain minus cerebellum and medulla oblongata membranes, pH 7.4, 2 hours at 4° C.
Experimental: ^3 H R-(R*,S*)]-α-(4-Hydroxy-phenyl)-β-methyl-4-(phenyl-methyl)-1-piperidine propanol (compound A) binding
Male Fullinsdorf albino rats weighing between 150-200 g were used. Membranes were prepared by homogenization of the whole brain minus cerebellum and medulla oblongata with a Polytron (10.000 rpm, 30 seconds), in 25 volumes of a cold Tris-HCl 50 mM, EDTA 10 mM, pH 7.1 buffer. The homogenate was centrifuged at 48.000 g for 10 minutes at 4° C. The pellet was resuspended using the Polytron in the same volume of buffer and the homogenate was incubated at 37° C. for 10 minutes. After centrifugation the pellet was homogenized in the same buffer and frozen at -80° C. for at least 16 hours but not more than 10 days. For the binding assay the homogenate was thawed at 37° C., centrifuged and the pellet was washed three times as above in a Tris-HCl 5 mM, pH 7.4 cold buffer. The final pellet was resuspended in the same buffer and used at a final concentration of 200 μg of protein/ml.
Compound A binding experiments were performed using a Tris-HCl 50 mM, pH 7.4 buffer. For displacement experiments 5 nM of Compound A were used and non specific binding was measured using 10 μM of tetrahydroisoquinoline and usually it accounts for 10% of the total. The incubation time was 2 hours at 4° C. and the assay was stopped by filtration on Whatmann GF/B glass fiber filters (Unifilter-96, Packard, Zutrich, Switzerland). The filters were washed 5 times with cold buffer. The radioactivity on the filter was counted on a Packard Top-count microplate scintillation counter after addition of […] of microscint 40 (Canberra Packard S.A., Zurich, Switzerland).
The effects of compounds were measured using a minimum of 8 concentrations and repeated at least once. The pooled normalized values were analyzed using a non-linear regression calculation program which provide IC50 with their relative upper and lower 95% confidence limits (RS1, BBN, USA). The IC50 value refers to the concentration of a compound needed to give 50% inhibition, i.e., the concentration at which 50% of the ligands bonded to the recept or are displaced.
Concentrations higher than 10 μM were not tested.

T1 sequence (Q00960 27-1482, other chains not shown): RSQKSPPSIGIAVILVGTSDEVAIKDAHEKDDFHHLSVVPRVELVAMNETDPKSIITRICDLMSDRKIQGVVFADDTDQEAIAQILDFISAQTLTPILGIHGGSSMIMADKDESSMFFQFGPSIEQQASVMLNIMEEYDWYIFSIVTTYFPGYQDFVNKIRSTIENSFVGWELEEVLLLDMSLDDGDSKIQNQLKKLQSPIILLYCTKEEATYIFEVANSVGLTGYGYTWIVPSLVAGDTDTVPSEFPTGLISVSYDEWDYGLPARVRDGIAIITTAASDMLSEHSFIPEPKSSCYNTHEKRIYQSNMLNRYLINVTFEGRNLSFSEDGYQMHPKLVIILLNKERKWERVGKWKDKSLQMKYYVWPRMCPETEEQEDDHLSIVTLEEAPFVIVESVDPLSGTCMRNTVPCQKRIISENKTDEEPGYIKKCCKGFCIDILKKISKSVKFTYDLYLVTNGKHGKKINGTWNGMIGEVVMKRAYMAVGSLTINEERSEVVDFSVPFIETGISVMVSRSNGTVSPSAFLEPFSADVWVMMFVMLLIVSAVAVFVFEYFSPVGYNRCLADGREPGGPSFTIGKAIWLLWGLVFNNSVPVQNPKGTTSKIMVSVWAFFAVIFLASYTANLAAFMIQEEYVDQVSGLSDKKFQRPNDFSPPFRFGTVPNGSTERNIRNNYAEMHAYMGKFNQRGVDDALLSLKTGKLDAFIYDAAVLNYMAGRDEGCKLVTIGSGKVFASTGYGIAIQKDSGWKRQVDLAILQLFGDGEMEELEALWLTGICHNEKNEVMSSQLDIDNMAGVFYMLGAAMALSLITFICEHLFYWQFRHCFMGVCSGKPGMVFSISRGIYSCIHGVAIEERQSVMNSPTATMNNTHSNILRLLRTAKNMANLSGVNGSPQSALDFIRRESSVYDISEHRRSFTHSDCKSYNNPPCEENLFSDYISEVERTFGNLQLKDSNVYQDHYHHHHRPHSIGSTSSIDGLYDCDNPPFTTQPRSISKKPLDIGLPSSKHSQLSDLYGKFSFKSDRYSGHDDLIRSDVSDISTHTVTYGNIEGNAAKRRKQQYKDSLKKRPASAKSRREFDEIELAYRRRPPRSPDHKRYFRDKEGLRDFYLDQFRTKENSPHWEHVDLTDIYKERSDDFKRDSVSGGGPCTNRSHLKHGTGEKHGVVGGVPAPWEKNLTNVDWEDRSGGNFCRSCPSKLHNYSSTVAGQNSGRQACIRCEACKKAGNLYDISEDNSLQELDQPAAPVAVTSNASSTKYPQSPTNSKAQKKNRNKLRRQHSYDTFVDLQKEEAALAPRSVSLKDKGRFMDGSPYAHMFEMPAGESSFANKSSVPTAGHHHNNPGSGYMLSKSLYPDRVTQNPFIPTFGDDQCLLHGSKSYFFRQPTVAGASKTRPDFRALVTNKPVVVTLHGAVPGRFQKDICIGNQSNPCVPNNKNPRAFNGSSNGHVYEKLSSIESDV

Row | Compound | IC50 [µM]
1 | c1cc(CN2CCCC2)cc(-c2n[nH]c(-c3ccc4ccccc4c3)n2)c1 [Example 25, 5-Naphthalen-2-yl-3-(3-pyrrolidin-1-ylmethyl-phenyl)-1H-[1,2,4]triazole hydrochloride] | 1
2 | CCN(CC)Cc1cccc(-c2n[nH]c(-c3ccc(OC)cc3)n2)c1 [Example 52, Diethyl-{3-[5-(4-methoxy-phenyl)-1H-[1,2,4]triazol-3-yl]-benzyl}-amine hydrochloride] | 0.33
3 | COc1ccc(-c2nc(-c3cccc(CN)c3)n[nH]2)cc1 [Example 73, 3-[5-(4-Methoxy-phenyl)-1H-[1,2,4]triazol-3-yl]-benzylamine hydrochloride] | 0.0083

Second part, the compound after the results:

Row | IC50 [µM] | Compound
4 | 0.087 | Clc1ccc(-c2nc(-c3cccc(CN4CCCC4)c3)n[nH]2)cc1 [Example 49, 5-(4-Chloro-phenyl)-3-(3-pyrrolidin-1-ylmethyl-phenyl)-1H-[1,2,4]triazole hydrochloride]
5 | 0.058 | COc1ccc(-c2nc(-c3cccc(CN4CCCC4)c3)n[nH]2)cc1 [Example 51, 5-(4-Methoxy-phenyl)-3-(3-pyrrolidin-1-ylmethyl-phenyl)-1H-[1,2,4]triazole hydrochloride]
